The record followed here is patent publication US8735406B2, “8-oxodihydropurine derivative” (Dainippon Sumitomo Pharma Co., Ltd., priority 2009, dated 2014).

Read-outs that look alike come from different tables or passages of the source.

This test deals with T1, FAAH (Rattus norvegicus, UniProt P97612).
T1 construct: Preparation of Rat Brain Membranes Preparations (FAAH Enzyme Solution); from tissue; host or cells: rat cerebrum (brain membrane preparation)
T1 sequence (P97612 1-579): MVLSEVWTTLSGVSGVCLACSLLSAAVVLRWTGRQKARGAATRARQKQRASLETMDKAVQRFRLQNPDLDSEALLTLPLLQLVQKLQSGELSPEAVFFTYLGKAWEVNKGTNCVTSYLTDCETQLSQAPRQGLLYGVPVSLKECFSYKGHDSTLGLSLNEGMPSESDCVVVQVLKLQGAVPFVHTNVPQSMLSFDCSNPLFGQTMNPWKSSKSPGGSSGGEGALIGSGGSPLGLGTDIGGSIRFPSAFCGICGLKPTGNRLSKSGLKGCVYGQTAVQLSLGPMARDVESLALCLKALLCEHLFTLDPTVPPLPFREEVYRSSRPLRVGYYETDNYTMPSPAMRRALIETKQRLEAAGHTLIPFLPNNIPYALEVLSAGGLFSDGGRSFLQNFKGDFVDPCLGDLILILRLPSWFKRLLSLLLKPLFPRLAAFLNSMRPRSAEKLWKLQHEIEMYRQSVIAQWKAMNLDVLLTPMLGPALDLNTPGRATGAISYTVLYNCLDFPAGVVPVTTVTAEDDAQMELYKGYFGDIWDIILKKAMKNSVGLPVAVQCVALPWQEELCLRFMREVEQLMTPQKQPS
Put plainly: Determination of FAAH inhibitory activity in rat (rat brain membrane preparations, [3H]-anandamide hydrolysis). The class given is biochemical. The following applies: for inhibition at 0.1 µM: read-out: FAAH Inhibition, Inhibition Rate at 100 nM; for IC50: test substance 0.1 nM to 1 μM. The method, boiled down: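 Rat cerebrum membranes (100 μg/mL protein) preincubated 10 min at 37 °C with compound (1% DMSO) in pH 7.6 Tris buffer with 1.5% BSA. Substrate 2 nM [3H]-anandamide plus 2 μM anandamide added for 10 min at 37 °C. [3H]-ethanolamine in the aqueous phase after chloroform/methanol extraction was scintillation counted; IC50 over 0.1 nM–1 μM.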

Where [1] appears, read: rat brain membrane preparations, 100 nM test substance.
[2] abbreviates: rat brain membrane preparations, read-out: FAAH Inhibition IC50.

Usually inhibition stands for the drop in the measured response relative to a control, in per cent. In general, IC50 refers to the point on the concentration scale where inhibition reaches its midpoint. In the case of `CCOc1cccc(-c2ncc3c(n2)n(C(=O)N2CCC2)c(=O)n3C)c1` [compound 346], the inhibition at 0.1 µM under setting [1] was 99%. In addition, under setting [2], the IC50 amounted to 21 nM.
For `CCOc1ccc(-c2ncc3c(n2)n(C(=O)N2CCC2)c(=O)n3C)cc1` [compound 347], in that order: 72% and 61 nM.
For `CCCCOc1cccc(-c2ncc3c(n2)n(C(=O)N2CCC2)c(=O)n3C)c1` [compound 348], in that order: 90% and 28 nM.
For `CCCCOc1ccc(-c2ncc3c(n2)n(C(=O)N2CCC2)c(=O)n3C)cc1` [compound 349], the inhibition at 0.1 µM under setting [1] amounted to 103%. The IC50 under setting [2] is 10 nM.
Regarding `Cn1c(=O)n(C(=O)N2CCC2)c2nc(-c3cccc(OC(F)(F)F)c3)ncc21` [compound 350], the inhibition at 0.1 µM under setting [1] was determined as 94%. Moreover, under setting [2], the IC50 amounted to 10 nM.
For `Cn1c(=O)n(C(=O)N2CCC2)c2nc(-c3ccc(OC(F)(F)F)cc3)ncc21` [compound 351], in that order: 104% and 10 nM.
Regarding `Cn1c(=O)n(C(=O)N2CCC2)c2nc(-c3ccccc3)ncc21` [compound 352], the inhibition at 0.1 µM under setting [1] turned out to be 42%. In addition, the IC50 under setting [2] was 164 nM.
For `Cn1c(=O)n(C(=O)N2CCC2)c2nc(-c3cccc(F)c3)ncc21` [compound 353] the same measures were 72% and 92 nM.
For `Cn1c(=O)n(C(=O)N2CCC2)c2nc(-c3ccc(F)cc3)ncc21` [compound 354], in that order: 79% and 52 nM.
For `COc1cccc(-c2ncc3c(n2)n(C(=O)N2CCC2)c(=O)n3C)c1` [compound 355] the same measures were 76% and 86 nM.
With `Cn1c(=O)n(C(=O)N2CCC2)c2nc(-c3cccc(C(F)(F)F)c3)ncc21` [compound 357], the inhibition at 0.1 µM under setting [1] came to 107%. Besides, the IC50 under setting [2] worked out at 11 nM.
With `Cn1c(=O)n(C(=O)N2CCC2)c2nc(-c3ccc(OCC(F)F)cc3)ncc21` [compound 368], the inhibition at 0.1 µM under setting [1] is 99%. The IC50 under setting [2] was determined as 17 nM.
For `Cc1cccc(Cc2ncc3c(n2)n(C)c(=O)n3C(=O)N2CCC2)c1` [compound 371], in that order: 43% and 149 nM.
Consider `Cn1c(=O)n(C(=O)N2CCC2)c2cnc(Cc3cccc(F)c3)nc21` [compound 372], for which the inhibition at 0.1 µM under setting [1] was 80%. Besides, the IC50 under setting [2] worked out at 32 nM.
With `Cn1c(=O)n(C(=O)N2CCC2)c2cnc(Cc3ccc(F)cc3)nc21` [compound 373], the inhibition at 0.1 µM under setting [1] worked out at 90%. The IC50 under setting [2] was 17 nM.
For `Cn1c(=O)n(C(=O)N2CCC2)c2cnc(Cc3ccccc3F)nc21` [compound 374], in that order: 85% and 12 nM.
For `COc1ccc(Cc2ncc3c(n2)n(C)c(=O)n3C(=O)N2CCC2)cc1` [compound 376], in that order: 89% and 24 nM.
For `Cn1c(=O)n(C(=O)N2CCC2)c2cnc(Cc3ccccc3Cl)nc21` [compound 377] the same measures were 82% and 39 nM.
Consider `Cn1c(=O)n(C(=O)N2CCC2)c2cnc(Cc3ccc(Cl)cc3)nc21` [compound 378], for which the inhibition at 0.1 µM under setting [1] is 80%. In addition, under setting [2], the IC50 came to 31 nM.
For `COCCc1ncc2c(n1)n(C)c(=O)n2C(=O)N1CC(c2ccccc2)C1` [compound 389], in that order: 105% and 9 nM.
For `COCCc1ncc2c(n1)n(C)c(=O)n2C(=O)N1CC(c2ccc(F)cc2)C1` [compound 390], in that order: 120% and 1 nM.
For `COCCc1ncc2c(n1)n(C)c(=O)n2C(=O)N1CC(c2cccc(F)c2)C1` [compound 391] the same measures were 105% and 4 nM.
On to `CCOc1ccc(C2CN(C(=O)n3c(=O)n(C)c4nc(CCOC)ncc43)C2)cc1` [compound 392], for which the inhibition at 0.1 µM under setting [1] was 105%. Also, the IC50 under setting [2] worked out at 11 nM.
For `COCCc1ncc2c(n1)n(C)c(=O)n2C(=O)N1CC(c2cccc(C(F)(F)F)c2)C1` [compound 393] the same measures were 101% and 10 nM.
For `Cn1c(=O)n(C(=O)N2CCC2)c2cnc(COc3ccccc3)nc21` [compound 403], in that order: 93% and 20 nM.
As to `Cn1c(=O)n(C(=O)N2CCC2)c2cnc(COc3cccc(F)c3)nc21` [compound 405], the inhibition at 0.1 µM was determined as 97%. Moreover, where the note is “FAAH Inhibition IC50, rat brain membrane preparations”, the IC50 came to 98 nM.
For the compound `Cn1c(=O)n(C(=O)N2CCC2)c2cnc(COc3ccc(Cl)cc3)nc21` [compound 406], the inhibition at 0.1 µM under setting [1] came to 54%. The IC50 under setting [2] amounted to 100 nM.
For `Cn1c(=O)n(C(=O)N2CCC2)c2cnc(COc3cccc(Cl)c3)nc21` [compound 407] the same measures were 70% and 92 nM.
For `Cn1c(=O)n(C(=O)N2CCC2)c2cnc(COc3ccccc3F)nc21` [compound 408] the same measures were 69% and 99 nM.
For `Cn1c(=O)n(C(=O)N2CCC2)c2cnc(COc3ccccc3Cl)nc21` [compound 409] the same measures were 63% and 96 nM.
Take `Cn1c(=O)n(C(=O)N2CCC2)c2cnc(COc3cccc(C(F)(F)F)c3)nc21` [compound 410]: the inhibition at 0.1 µM under setting [1] was 55%. Moreover, under setting [2], the IC50 is 100 nM.
For `Cc1cccc(OCc2ncc3c(n2)n(C)c(=O)n3C(=O)N2CCC2)c1` [compound 411] the same measures were 45% and 171 nM.
For `Cn1c(=O)n(C(=O)N2CCC2)c2cnc(COc3cccc(OC(F)(F)F)c3)nc21` [compound 412] the same measures were 56% and 78 nM.
For `COCc1ncc2c(n1)n(C)c(=O)n2C(=O)N1CC(c2ccccc2C)C1` [compound 442], in that order: 54% and 74 nM.
As for `COCc1ncc2c(n1)n(C)c(=O)n2C(=O)N1CC(c2cccc(C)c2)C1` [compound 444], the inhibition at 0.1 µM under setting [1] came to 69%. The IC50 under setting [2] is 62 nM.
For `CCOc1ccc(C2CN(C(=O)n3c(=O)n(C)c4nc(COC)ncc43)C2)cc1` [compound 445], in that order: 105% and 10 nM.
For `COCc1ncc2c(n1)n(C)c(=O)n2C(=O)N1CC(c2ccc(Cl)cc2)C1` [compound 446] the same measures were 101% and 6 nM.
On to `COCc1ncc2c(n1)n(C)c(=O)n2C(=O)N1CC(c2cccc(Cl)c2)C1` [compound 447], for which the inhibition at 0.1 µM under setting [1] was determined as 131%. The IC50 under setting [2] stood at 1 nM.
Turning to `COCc1ncc2c(n1)n(C)c(=O)n2C(=O)N1CC(c2ccc(C(F)(F)F)cc2)C1` [compound 448], the inhibition at 0.1 µM under setting [1] worked out at 95%. Also, the IC50 under setting [2] stood at 10 nM.
For `COCc1ncc2c(n1)n(C)c(=O)n2C(=O)N1CC(c2cccc(OC(F)(F)F)c2)C1` [compound 449] the same measures were 84% and 28 nM.
For `COCc1ncc2c(n1)n(C)c(=O)n2C(=O)N1CC(c2ccc(OC)cc2)C1` [compound 450], the inhibition at 0.1 µM under setting [1] was 89%. Besides, the IC50 under setting [2] was 20 nM.
For `CCOc1cccc(C2CN(C(=O)n3c(=O)n(C)c4nc(COC)ncc43)C2)c1` [compound 451], in that order: 95% and 12 nM.
For `COCc1ncc2c(n1)n(C)c(=O)n2C(=O)N1CC(c2ccc(C)cc2)C1` [compound 452] the same measures were 74% and 39 nM.
For `COCc1ncc2c(n1)n(C)c(=O)n2C(=O)N1CC(c2ccccc2OC)C1` [compound 457], in that order: 96% and 10 nM.
With `CCOCc1ncc2c(n1)n(C)c(=O)n2C(=O)N1CC(c2ccc(F)cc2)C1` [compound 461], the inhibition at 0.1 µM under setting [1] was determined as 107%. The IC50 under setting [2] was found to be 10 nM.
For `CCCOCc1ncc2c(n1)n(C)c(=O)n2C(=O)N1CC(c2ccccc2)C1` [compound 467] the same measures were 69% and 52 nM.
Take `CCCOCc1ncc2c(n1)n(C)c(=O)n2C(=O)N1CC(c2ccc(F)cc2)C1` [compound 470]: the inhibition at 0.1 µM under setting [1] was 103%. In addition, under setting [2], the IC50 was 2 nM.
For `COCCOCc1ncc2c(n1)n(C)c(=O)n2C(=O)N1CC(c2cccc(F)c2)C1` [compound 473], in that order: 113% and 8 nM.
For `CN(C)C(=O)n1c(=O)n(C)c2cnc(CCc3cccc(OC(F)(F)F)c3)nc21` [compound 495], in that order: 100% and 10 nM.
